# From patent US4770998A, “Biochemical assay of aldehydes” (Mobil Oil Corporation, priority 1985, dated 1988)
# What was measured:
# [1] = system: Mouse lymphoma L5178Y cells (clone 3.7.2C); experiment: Mouse lymphoma mutagenicity assay (TK locus) with total growth, nonactivated (without S-9), with and without FDH plus NAD; assay type: cell-based
# Procedure: All tests preferably are performed in duplicate.
# In this example the dose-dependent mutagenic effect of formaldehyde on lymphoma cultures, both with and without FDH plus NAD, was investigated in the absence of S-9 activation.
# [2] = known stoichiometric release; cited from earlier work
# [3] = system: Mouse lymphoma L5178Y cells (clone 3.7.2C); experiment: Mouse lymphoma mutagenicity assay (TK locus) with total growth, with S-9 activation, with FDH plus NAD; details: 2.5 and 5.0 ug/ml
# Procedure: Mouse lymphoma L5178Y cells (clone 3.7.2C) ATCC CRL 9518 are preferred since these indicator cells are useful for mutagenicity as well as for toxicity assay.
# The L5178Y mouse lymphoma indicator cells (clone 3.7.2C) are stored in liquid nitrogen. Cultures are thawed and are maintained in logarithmic growth by serial subculturing for up to six weeks. Cultures are grown at 37° C. in either a shaker incubator or a roller-harvester incubator. […] Cultures are cleansed on a weekly basis, as described by Clive et al. (1979), to reduce the frequency of spontaneous TK-/- mutants and thus maintain minimum mutant frequencies in the negative controls.
# The medium for suspension culture of the cells is Fischer's medium (for leukemic mice) supplemented with heat-inactivated horse serum (10%, v/v), sodium pyruvate (1 mM) and Pluronic (0.1%, w/v). […]
# Logarithmically growing cultures of recently cleansed lymphoma cells are counted and adjusted to 1×10^6 cells/ml for use in the assays. […]
# An expression period of 2 days is used to allow recovery, growth and expression of the TK-/- phenotype. Cell population densities will be determined on Day 1 (approximately 24 hours after treatment) and is adjusted to 3×10^5 cells/ml to maintain optimal growth rates. Cell population densities are then determined on Day 2 (approximately 44 hours after treatment), and appropriated cultures selected for mutant analysis. […]
smiles,measurement,setting,value
"O=[N+]([O-])C(CO)(CO)CO [TNM, Tris-(hydroxymethyl) nitromethane]",total growth / toxicity,[1],Dose dependent increases in toxicity and mutagenicity
same,toxicity with FDH and NAD,[1],absent
same,mutagenicity with FDH and NAD,"[1]; supplemented with FDH and NAD, without S-9",absent
same,mutant frequency / mutagenicity,"[1]; without FDH/NAD, without S-9",Dose dependent increases in toxicity and mutagenicity
same,formaldehyde released,[2],3 mols of formaldehyde per mol of TNM
"Cc1c2ccccc2c(C)c2c1ccc1ccccc12 [DMBA, 7,12-dimethylbenz[a]anthracene]",reduction of mutagenicity with addition of FDH plus NAD,[3],No reduction of toxicity or mutagencity
same,reduction of toxicity with addition of FDH plus NAD,[3],No reduction of toxicity or mutagencity
"CCOS(C)(=O)=O [EMS, ethylmethane sulfonate]",reduction of mutagenicity with addition of FDH plus NAD,"[1]; 0.5 and 1.0 ul/ml, without S-9",No reduction of toxicity or mutagenicity
same,reduction of toxicity with addition of FDH plus NAD,"[1]; 0.5 and 1.0 ul/ml, without S-9",No reduction of toxicity or mutagenicity
